Assays:
[1] = system: PMN-MDSC and regulatory T-cell (Treg); test: Induction of immune-regulatory cells by FxR and TGR5 agonist pre-treatment in the OVA allergic airway disease model, flow cytometry; type: in vivo, BALB/c mice; conditions: oral gavage 30 mg/kg/day twice a week from 3 w/o; BALF, PB, BM, Spl after aerosol OVA challenge; vs vehicle control
Protocol: (§1) The model uses ovalbumin (OVA) as the allergen to induce allergic airway inflammation of the mice. Briefly, allergen sensitization was induced in 5 w/o BALB/c mice by two intraperitoneal injection (i.p.) of 50 μg ovalbumin (OVA) plus 2 mg alum at 10-14-day interval. One week after the second OVA i.p. sensitization, 30-min aerosol 5% OVA inhalation challenge (ih) was performed for 3 consecutive days.
(§2) OVA-induced allergic airway disease was induced in 5 w/o BALB/c mice according to the protocol as depicted. […] Age- and sex-matched control mice were given the vehicle containing methyl cellulose.
The effects of FXR and TGR5 signaling in inducing both innate and adaptive immune-regulatory cells (i.e., PMN-MDSC and Treg) are investigated in this example. Mice were pre-treated by FxR and TGR5 agonists, followed by allergen sensitization and induction of allergic airway disease as depicted in FIG. 6. […] BALF represents bronchoalveolar lavage fluid, PB represents peripheral blood, BM represents bone marrow, Spl represents spleen. […] FoxP3 is an intracellular specific marker of regulatory T-cell and acts as a major regulator in the development and function of regulatory T-cell. **P<0.01; ***P<0.001, comparison was made by analysis of variance (ANOVA).

[2] = system: OVA-induced allergic airway disease; test: Severity of OVA-induced allergic airway disease after FxR and TGR5 agonist pre-treatment; type: in vivo, BALB/c mice; conditions: oral gavage 30 mg/kg/day twice a week from 3 w/o
Protocol: as §1, §2
The effects of FxR and TGR5 signaling in alleviating the severity of OVA-induced allergic airway disease are investigated in this example Mice were pre-treated by FxR and TGR5 agonists, followed by sensitization and asthmatic response of mice as depicted in FIG. 6. One day after the 3rd aerosol OVA challenge, sera and bronchoalveolar lavage fluids (BALF) were collected and parameters reflecting the severity of allergic inflammation were tested. […] Neg Ctrl represents healthy control. N=12-14 mice/group.

CC[C@H]1[C@@H](O)[C@@H]2[C@H](C[C@H](O)[C@]3(C)[C@@H]([C@H](C)C[C@H](C)C(=O)O)CC[C@@H]23)[C@@]2(C)CC[C@@H](O)C[C@@H]12 [TGR5 agonist, 6-EMCA]
expansion of adaptive immune-regulatory cell, Treg [1]: can induce the expansion
expansion of innate immune-regulatory cells, PMN-MDSC [1]: can induce the expansion
four parameters indicative of allergic airway disease severity (seral OVA-specific IgE, BALF leukocyte counts, BALF IL-5, airway resistance to methacholine) ([2]; one day after 3rd aerosol OVA challenge): mitigated
airway disease severity ([2]; vs control mice receiving vehicle, N=12-14 mice/group): significantly milder airway disease

Source: patent US20230381248A1, “METHOD FOR TREATING AND/OR PREVENTING ATOPY AND ALLERGIC DISEASES BY USING BACTERIA OR COMPOSITIONS HAVING 7 ALPHA-DEHYDROXYLASE ACTIVITY, AND/OR BILE ACID RECEPTORS FXR AND/OR TGR5 AGONISTS” (NATIONAL TAIWAN UNIVERSITY HOSPITAL, priority 2022, published 2023)
